In patent US5652222A, “Selective inhibition of leukemic cell proliferation by bcr-abl antisense oligonucleotides” (Temple University-of The Commonwealth System of Higher …, priority 1993, dated 1997):
“Also recorded” adds a separate entry of the source.

How the values were obtained:
[1] = test system: nucleic acid synthesis in both normal and leukemic cells; details: cited from earlier work
CML chronic phase = details: cited from earlier work; for control of the excessive granulopoiesis of CML: human, in vivo; for median survival: standard approach to treatment of CML chronic phase
chronic phase CML = details: cited from earlier work
[2] = test system: cells of CML patients in blast crisis, K-28 (b3a2) type junction; assay: Colony formation of CML blast crisis patient cells expressing the b3a2 (K-28) junction; format: cell-based, human; details: for Number of Colonies, Antisense-treated: conditions of Example 1
Excerpt: To identify CML blast crisis patients carrying the second common type junction, in which bcr exon 3 is juxtaposed to c-abl exon 2, total RNA derived from cells of CML patients in blast crisis was reverse-transcribedwith synthetic primers. The 3' primer (SEQ ID NO:10) was complementary to 22 nucleotides of c-abl. exon 2. The 5' primer was the 22-mer GTCATCGTCCACTCAGCCACTG (SEQ ID NO:12) complementary to 22 nucleotides of bcr exon 3. The RNA was amplified by polymerase chain reaction according to Example 1. The amplification products were then hybridized with the synthetic 18-mer oligonucleotide GAAGGGCTTT TGAACTCT (SEQ ID NO:6), which is complementary to the b3a2 junction. After cloning of breakpoints in two patients, sequence analysis of several clones identified the b3a2 junction as precisely corresponding to the K-28 breakpoint shown in FIG. 3. (SEQ ID NO:4).
Utilizing the culture condition and oligomer treatment conditions of Example 1, cells were exposed to either no oligomer (FIG. 4A), the 18-nucleotide synthetic oligomer GAAGTGCTGT TGAACTCT (SEQ ID NO:5) partially complementary to the b3a2 junction, containing 9 nucleotides corresponding to bcr and 9 nucleotides corresponding to c-abl but with two mismatches (FIG. 4B); or the 18-nucleotide synthetic oligomer GAAGGGCTTT TGAACTCT (SEQ ID NO:6) completely complementary to the same bcr-abl junction (FIG. 4C).

BV173 cells (b2/a2) = assay: Proliferation of BV173 cells expressing b2a2 junction; format: cell-based, human; details: in comparison to untreated control cells (FIG. 7)
Protocol: Amplification of the bcr-abl junction with a 5' primer corresponding to bcr exon 2, and a 3' primer corresponding to abl exon 2, followed by hybridization to an 18-mer specific for the b2/a2 or the b3/a2 junction identified the b2/a2 breakpoint in these cells (data not shown).
The sensitivity of the BV173 cells to b2/a2 antisense phosphorothioate oligodeoxynucleotides was assessed. Phosphorothioate oligodeoxynucleotides were prepared on either an Applied Biosystems Model 380B or 390Z Automated Synthesis instrument using conventional phosphoramidite monomers and manufacturer-recommended procedures, which included substitution of tetraethylthiuran (or an equivalent sulfur-donor reagent) for iodine-water-pyridine, […] reversed-phase preparative chromatography, detritylation, and obtaining the final product in the form of its sodium salt, all according to previously published methodology: Zon and Stec, in Oligonucleotides and Analogues A Practical Approach, F. Eckstein, Ed. (Oxford Univerisity Press, Oxford 1991), pp. 87-108; Zon and Geiser, Anti-Cancer Drug Design 6, 539 (1991); Vu and Hirschenbein, Tetrahedron Lett. 32, 3005-3008 (1991).
BV173 cells were cultured in the presence of phosphorothioate b2/a2 antisense 26-mer CGCTGAAGGG CTTCTTCCT ATTGAT (SEQ ID NO:29), the phosphorothioate sense sequence ATCAATAAGGAAGCCCTTCAGCG (SEQUENCE ID NO:34), or the b3/a2 (SEQ ID NO:31) or b1/a2 (SEQ ID N0:33) phosphorothioate antisense 26-mer. […] The sense oligomer SEQ ID NO:34 gave no inhibition (FIG. 7, -.largecircle.-) in comparison to untreated control cells (FIG. 7, -.quadrature.-).

[3] = alpha-interferon treated CML patients

Row | Molecule | inhibition of nucleic acid synthesis [1] | control of the excessive granulopoiesis of CML (CML chronic phase) | median survival (CML chronic phase) | inhibition of proliferation of BV173 cells (BV173 cells (b2/a2)) | other results
1 | CS(=O)(=O)OCCCCOS(C)(=O)=O [busulfan] | inhibit nucleic acid synthesis in both normal and leukemic cells; also recorded: inhibit nucleic acid synthesis both in normal and leukemic cells | useful in the control of the excessive granulopoiesis of CML | about 47 months |  | 
2 | NC(=O)NO [hydroxyurea] | inhibit nucleic acid synthesis in both normal and leukemic cells; also recorded: inhibit nucleic acid synthesis both in normal and leukemic cells | useful in the control of the excessive granulopoiesis of CML | about 47 months |  | 
3 | Alpha-interferon |  |  |  |  | patients with normalization of the blood count (chronic phase CML; 3-9 million units intramuscularly each day, chronic phase CML): about three quarters; side effects (chronic phase CML; CML patients): fever, anorexia, muscle and bone pain, depression, and often immune thrombocytopenia; patients with a decrease in Ph1-chromosome-containing metaphases (chronic phase CML; [3]): more than one third; treated patients having fewer than 5% Ph1-positive cells (chronic phase CML; [3]): about 15%; specificity of effect on leukemic clone (chronic phase CML; human, in vivo): non-specific, as indicated by the persistence of Ph^1 leukemic cells and the inhibition of normal hematopoietic cell growth
4 | SEQ ID NO:6: 18-nucleotide synthetic oligomer GAAGGGCTTT TGAACTCT completely complementary to the b3a2 (K-28) junction (antisense GAAGGGCTTTTGAACTCT; further chemistry not given here) |  |  |  |  | Number of Colonies, Antisense-treated ([2]; Table 2, patient 1, untreated 278 ± 28): 102 ± 14 colonies; Number of Colonies, Antisense-treated ([2]; Table 2, patient 2, untreated 182 ± 18): 68 ± 12 colonies; % Inhibition ([2]; Table 2, patient 2, number of colonies vs untreated): 63%
5 | SEQ ID NO:31: b3/a2 phosphorothioate antisense 26-mer CGCTGAAGGGCTT TTGAA&TCTGCTT (antisense CGCTGAAGGGCTTTTGAACTCTGCTT; all phosphorothioate, sugars by position and methylation of C not given here) |  |  |  | Only the b2/a2 antisense oligodeoxynucleotide inhibited the proliferation of BV173 cells | 
6 | SEQ ID NO:33: b1/a2 phosphorothioate antisense 26-mer CGCTGAAGGGCTT CTGCGTCTCCATG (antisense CGCTGAAGGGCTTCTGCGTCTCCATG; all phosphorothioate, sugars by position and methylation of C not given here) |  |  |  | Only the b2/a2 antisense oligodeoxynucleotide inhibited the proliferation of BV173 cells | 
